{
  "source": "patent US12319652B2",
  "about": "“Salts and solid forms of (R)-1-(5-methoxy-1H-indol-1-yl)-N,N-dimethylpropan-2-amine” (priority 2021, dated 2025)",
  "format": "physicochemical",
  "description": "Both samples were maintained at 75% RH at 40° C. and monitored by HPLC at time points t=1 h, 3 h, 24 h, 48 h, 7 d, 2 w, 3 w, 4 w and 5 w.\nUnder the conditions evaluated during this study, XRPD analysis could not be performed as compound 1 Fumarate turned to an oily residue within 3 h under both conditions.\n[…] Both samples were maintained under equilibrium humidity of 75% RH at 40° C. and monitored, initially at hourly and then weekly time points.",
  "data": [
    {"smiles": "COc1ccc2c(ccn2C[C@@H](C)[NH+](C)C)c1.O=C(O)/C=C/C(=O)O", "note": "[Compound 1 fumarate, (R)-1-(5-methoxy-1H-indol-1-yl)-N,N-dimethylpropan-2-amine fumarate]", "values": [
      {"measurement": "Decrease of chemical purity", "setting": "75% RH/40° C., 5 week time point", "value": "approximately 2 % area"},
      {"measurement": "Stability of the amorphous phase", "setting": "75% RH/40° C., 5 weeks", "value": "good stability"},
      {"measurement": "Time to turn to an oily residue", "setting": "75% RH/40° C., both conditions (open vial and double bagged)", "value": "≤ 3", "unit": "h"},
      {"measurement": "Preliminary stability evaluation (hydrate formation or degradation)", "setting": "several weeks at 40° C./75% RH", "value": "no evidence for hydrate formation or degradation"}
    ]}
  ]
}
